Reference: patent US5955616A, “Pyrrolidine derivatives having phospholipase A2 inhibitory activity” (Shionogi & Co., Ltd., priority 1995, dated 1999)

Target: T1, cPLA2 (Homo sapiens, UniProt P47712)
T1 sequence (P47712 1-749): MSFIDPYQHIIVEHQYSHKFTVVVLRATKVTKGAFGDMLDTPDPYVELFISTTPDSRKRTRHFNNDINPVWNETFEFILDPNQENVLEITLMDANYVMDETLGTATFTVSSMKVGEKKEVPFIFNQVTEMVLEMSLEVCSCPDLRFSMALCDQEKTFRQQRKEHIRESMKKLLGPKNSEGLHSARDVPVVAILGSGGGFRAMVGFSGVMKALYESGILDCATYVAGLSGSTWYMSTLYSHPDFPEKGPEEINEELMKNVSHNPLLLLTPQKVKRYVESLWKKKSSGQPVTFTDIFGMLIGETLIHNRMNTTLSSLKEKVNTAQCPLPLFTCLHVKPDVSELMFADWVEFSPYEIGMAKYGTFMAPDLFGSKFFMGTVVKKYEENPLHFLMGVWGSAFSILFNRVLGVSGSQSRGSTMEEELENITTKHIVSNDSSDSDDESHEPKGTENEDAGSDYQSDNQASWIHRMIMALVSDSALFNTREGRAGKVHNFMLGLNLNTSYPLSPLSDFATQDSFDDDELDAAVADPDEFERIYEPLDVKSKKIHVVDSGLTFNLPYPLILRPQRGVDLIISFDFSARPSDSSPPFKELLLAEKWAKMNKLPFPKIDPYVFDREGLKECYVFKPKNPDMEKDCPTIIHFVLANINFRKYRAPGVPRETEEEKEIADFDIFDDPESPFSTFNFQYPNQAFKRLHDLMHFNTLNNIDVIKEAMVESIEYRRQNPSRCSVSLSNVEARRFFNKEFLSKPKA
Assay: cPLA2 Inhibitory activity (release of radiolabelled fatty acid from liposomes)
Format: biochemical
Conditions: 50 mM HEPES pH 7.4, 1 mM CaCl2, 2.5 μM radio-labeled phosphatidylcholine, 15 min at 37° C; read-out: cPLA2 Inhibition Activity IC50
Procedure: Experiment 1 cPLA2 Inhibitory activity
The compounds of the present invention was tested for the cPLA2 inhibitory activity by a method known in a literature (R. M. Kramer, E. F. Roberts, J. Manetta and J. E. Putnam, J. Biol. Chem., 268(8), 5268-5272 ([…])), as outlined below.
As a substrate, liposomes which contain 1-palmitoyl-2-[^14 C]-arachidonoyl-sn-glycero-3-phosphocholine and sn-1,2-dioleoylglycerol at the ratio of 2:1 and have treated ultrasonically were used. The substrate was added to a 50 mM HEPES buffer (pH 7.4) (200 μl) containing 1 mM CaCl2, 2 mM dithiothreitol, 150 mM NaCl, 0.1 mg/ml BSA so as to make the concentration of radio-labeled phosphatidylcholine 2.5 μM. To the solution was added a compound of the present invention in DMSO (10 μl) to obtain reaction solutions each containing the test compound at 250 μM, 50 μM, 10 μm, 2 μM, and 0.4 μM. The reaction was allowed to start by adding an enzyme (cPLA2) (4 ng) and continued for 15 min at 37° C.
The amount of fatty acids released by the reaction was measured on a liquid scintillation counter. Control was obtained by conducting the experiment in the same manner except that a compound of the present invention was not added. The inhibitory activity was expressed as percent (%) to the control value, which was used for the calculation of the concentration required for 50% inhibition (IC50, μM).

Structure (SMILES) | IC50
CC(=O)Nc1nc(C)c(S(=O)(=O)N2C[C@@H](SCc3ccccc3)C[C@H]2C(=O)Nc2ccc(/C=C3\SC(=S)NC3=O)cc2)s1 [Compound A-59] | 8.6 µM
O=C1NC(=O)C(=Cc2ccc(OC[C@@H]3C[C@H](SCc4ccccc4)CN3C(=O)c3ccccc3)cc2)S1 [Compound E-5] | 7.7 µM
O=C1NC(=O)C(=Cc2ccc(S(=O)(=O)NC[C@@H]3C[C@H](SC(c4ccccc4)c4ccccc4)CN3C(=O)c3ccccc3)cc2)S1 [Compound B-8] | 1.3 µM
O=C1NC(=S)O/C1=C\c1ccc(NC(=O)[C@@H]2C[C@H](SC(c3ccccc3)(c3ccccc3)c3ccccc3)CN2S(=O)(=O)c2ccc(-c3ccccc3)cc2)cc1 [Compound A-63] | 3.2 µM
O=C1NC(=O)/C(=C/c2ccc(COC[C@@H]3C[C@H](SC(c4ccccc4)(c4ccccc4)c4ccccc4)CN3C(=O)CCc3ccccc3)cc2)S1 [Compound E-1] | 1.1 µM
O=C1NC(=O)C(=Cc2ccc(S(=O)(=O)NCC3CC(SC(c4ccccc4)(c4ccccc4)c4ccccc4)CN3C(=O)c3ccccc3)cc2)S1 (centres unmarked) [Compound B-9] | 0.44 µM
CN(C)S(=O)(=O)N1C[C@@H](SCc2ccccc2)C[C@H]1C(=O)Nc1ccc(C=C2SC(=S)NC2=O)cc1 [Compound A-32] | 4.8 µM
CC(=O)N1C[C@@H](SCc2ccccc2)C[C@H]1C(=O)Nc1ccc(C=C2SC(=S)NC2=O)cc1 [Compound A-14] | 18 µM
CS[C@H]1C[C@@H](C(=O)Nc2ccc(C=C3SC(=S)NC3=O)cc2)N(C(=O)CCc2ccccc2)C1 [Compound A-22] | 21 µM
O=C1NC(=S)S/C1=C\c1ccc(NC(=O)[C@@H]2C[C@H](SCc3ccccc3)CN2S(=O)(=O)c2ccc(N=Nc3ccccc3)cc2)cc1 [Compound A-57] | 4.7 µM
O=C1NC(=S)S/C1=C\c1ccc(NC(=O)[C@@H]2C[C@H](SCc3ccccc3)CN2S(=O)(=O)N2CCOCC2)cc1 [Compound A-36] | 14 µM
CS[C@H]1C[C@@H](C(=O)Nc2ccc(/C=C3\SC(=S)NC3=O)cc2)N(S(=O)(=O)c2ccc(Cc3ccccc3)cc2)C1 [Compound A-47] | 6 µM
O=CN1C[C@@H](SCc2ccccc2)C[C@H]1C(=O)Nc1ccc(C=C2SC(=S)NC2=O)cc1 [Compound A-13] | 20 µM
CCCCS(=O)(=O)N1C[C@@H](SCc2ccccc2)C[C@H]1C(=O)Nc1ccc(C=C2SC(=S)NC2=O)cc1 [Compound A-31] | 4.8 µM
Cc1cc(C)c(CS[C@H]2C[C@@H](C(=O)Nc3ccc(C=C4SC(=O)NC4=O)cc3)N(C(=O)c3ccccc3)C2)c(C)c1 [Compound A-10] | 3.8 µM
O=C1NC(=S)SC1=Cc1ccc(NC(=O)[C@@H]2C[C@H](SCc3ccccc3)CN2C(=O)c2ccccc2)cc1 [Compound A-2] | 7.2 µM
CS[C@H]1C[C@@H](C(=O)Nc2ccc(/C=C3\SC(=O)NC3=O)cc2)N(S(=O)(=O)c2ccc(Br)cc2)C1 [Compound A-35] | 1.9 µM
CS[C@H]1C[C@@H](C(=O)Nc2ccc(C=C3SC(=S)NC3=O)cc2)N(C(=O)c2ccc(C(F)(F)F)cc2)C1 [Compound A-15] | 15 µM
CC(C)S(=O)(=O)N1C[C@@H](SCc2ccccc2)C[C@H]1C(=O)Nc1ccc(C=C2SC(=S)NC2=O)cc1 [Compound A-33] | 6.4 µM
CS[C@H]1C[C@@H](C(=O)Nc2ccc(/C=C3\SC(=S)NC3=O)cc2)N(S(=O)(=O)c2ccc(N(C)C)cc2)C1 [Compound A-49] | 17 µM
O=C1NC(=S)S/C1=C\c1ccc(NC(=O)[C@@H]2C[C@H](SCc3ccccc3)CN2S(=O)(=O)c2cccc3cccnc23)cc1 [Compound A-51] | 6.3 µM
O=C1NC(=S)SC1=Cc1ccc(NC(=O)[C@@H]2C[C@H](SCc3ccccc3)CN2)cc1 [Compound A-18] | 16 µM

The next lines start with the values.

IC50 | Structure (SMILES)
6.6 µM | O=C1NC(=O)C(=Cc2ccc(COC3CC(CNC(=O)c4ccc(-c5ccccc5)cc4)N(C(=O)c4ccccc4)C3)cc2)S1 (centres unmarked) [Compound N-1]
10 µM | O=C1NC(=O)/C(=C/c2ccc(NC(=O)[C@H]3C[C@@H](SCc4ccccc4)CN3S(=O)(=O)c3ccc(-c4ccccc4)cc3)cc2)S1 [Compound M-3]
4.2 µM | O=C1NC(=O)/C(=C/c2ccc(NC(=O)[C@@H]3CC(OC(c4ccccc4)c4ccccc4)CN3C(=O)c3ccccc3)cc2)S1 (some centres unmarked) [Compound G-9]
26 µM | COC1C[C@@H](CNC(=O)c2ccc(/C=C3\SC(=O)NC3=O)cc2)N(S(=O)(=O)c2ccc(Cc3ccccc3)cc2)C1 (some centres unmarked) [Compound H-4]
6.6 µM | O=C1NC(=O)/C(=C/c2ccc(S(=O)(=O)NC[C@@H]3CC(OCc4ccc(F)cc4F)CN3S(=O)(=O)c3ccc(Cc4ccccc4)cc3)cc2)S1 (some centres unmarked) [Compound H-20]
26 µM | O=C1NC(=O)C(=C(CO)c2ccc(NC(=O)[C@@H]3CC(OC(c4ccccc4)c4ccccc4)CN3C(=O)c3ccccc3)cc2)S1 (some centres unmarked) [Compound I-1]
17 µM | O=C1NC(=O)/C(=C/c2ccc(NC(=O)[C@@H]3CC(OCc4ccc(Cl)cc4)CN3C(=O)c3ccccc3)cc2)S1 (some centres unmarked) [Compound G-3]
10 µM | Cc1cc(C)c(COC2C[C@@H](C(=O)Nc3ccc(C=C4SC(=O)NC4=O)cc3)N(C(=O)c3ccccc3)C2)c(C)c1 (some centres unmarked) [Compound G-6]
1.7 µM | CC(C)(C)OC(=O)N1CC(OCc2ccc(F)cc2F)C[C@H]1CNC(=O)c1ccc(/C=C2\SC(=O)NC2=O)cc1 (some centres unmarked) [Compound H-6]
14 µM | Cc1ccc(CS(=O)(=O)N2CC(OCc3ccc(F)cc3F)C[C@H]2CNC(=O)c2ccc(/C=C3\SC(=O)NC3=O)cc2)cc1 (some centres unmarked) [Compound H-3]
8.6 µM | O=C1NC(=O)/C(=C/c2ccc(S(=O)(=O)NC[C@@H]3CC(OCc4ccc(F)cc4F)CN3S(=O)(=O)Cc3ccc(Br)cc3)cc2)S1 (some centres unmarked) [Compound H-19]
5.3 µM | O=C1NC(=S)S/C1=C\c1ccc(NC(=O)[C@@H]2CCCN2C(=O)Cc2ccc(Br)cc2)cc1 [Compound L-1]
6.2 µM | O=C1NC(=O)/C(=C/c2ccc(C(=O)NC[C@@H]3C[C@H](OC(c4ccccc4)c4ccccc4)CN3C(=O)c3cccc(OCN4C(=O)c5ccccc5S4(=O)=O)c3)cc2)S1 [Compound H-12]
20 µM | O=C1NC(=O)/C(=C/c2ccc(NC(=O)[C@@H]3CC(OCc4ccc(F)cc4)CN3C(=O)c3ccccc3)cc2)S1 (some centres unmarked) [Compound G-2]
6.7 µM | O=C1NC(=O)/C(=C/c2ccc(C(=O)NC[C@@H]3CC(OC(c4ccccc4)c4ccccc4)CN3C(=O)c3ccccc3)cc2)S1 (some centres unmarked) [Compound H-1]
9 µM | CC(C)=CCC/C(C)=C/COC1C[C@@H](C(=O)Nc2ccc(/C=C3\SC(=O)NC3=O)cc2)N(C(=O)c2ccccc2)C1 (some centres unmarked) [Compound G-1]
10 µM | O=C1NC(=S)SC1=C[C@@H]1C[C@H](SCc2ccccc2)CN1S(=O)(=O)c1ccc(-c2ccccc2)cc1 [Compound F-2]
21 µM | O=C1NC(=O)/C(=C/c2ccc(NC(=O)[C@@H]3C[C@H](NCc4ccccc4)CN3C(=O)Cc3ccc(Br)cc3)cc2)S1 [Compound J-1]
15 µM | O=C1NC(=O)/C(=C/c2ccc(NC(=O)[C@H]3C[C@H](SCc4ccccc4)CN3S(=O)(=O)c3ccc(-c4ccccc4)cc3)cc2)S1 [Compound M-2]
14 µM | O=C1NC(=O)/C(=C/c2ccc(NC(=O)[C@@H]3CC(OCc4ccc(C(F)(F)F)cc4)CN3C(=O)c3ccccc3)cc2)S1 (some centres unmarked) [Compound G-4]
23 µM | O=C1NC(=O)/C(=C/c2ccc(NC(=O)[C@@H]3C[C@@H](SCc4ccccc4)CN3S(=O)(=O)c3ccc(-c4ccccc4)cc3)cc2)S1 [Compound M-1]
6.4 µM | O=C1NC(=O)/C(=C/c2ccc(C(=O)NC[C@@H]3CC(OCc4ccc(F)cc4F)CN3S(=O)(=O)c3ccc(Cc4ccccc4)cc3)cc2)S1 (some centres unmarked) [Compound H-5]
11 µM | CC(C)(C)OC(=O)N1CC(OCc2ccc(F)cc2F)C[C@H]1CNC(=O)c1ccc(/C=C2\SC(=S)NC2=O)cc1 (some centres unmarked) [Compound H-7]
11 µM | CC(=O)Oc1ccc(OC(C)=O)c(CCCCCCC(=O)N2C[C@@H](OC(c3ccccc3)c3ccccc3)C[C@H]2CNC(=O)c2ccc(/C=C3\SC(=O)NC3=O)cc2)c1 [Compound H-15]
4.4 µM | O=C1NC(=O)/C(=C/c2ccc(C(=O)NC[C@@H]3C[C@H](OC(c4ccccc4)c4ccccc4)CN3C(=O)c3ccc(OCN4C(=O)c5ccccc5S4(=O)=O)cc3)cc2)S1 [Compound H-13]
